Non-standard residues stand in square brackets, D forms with d. Residues, ends and D or L forms follow the SMILES beside them. No end group written: not given here. *: point of attachment. Biotin = O=C1N[C@H]2[C@H](CS[C@H]2CCCCC(=O)*)N1
Key:
[1] = test system: MIP1α induced THP-1 migration; test: THP-1 trans-well migration assay, MIP1α as chemoattractant; format: cell-based, human; details: inhibition of THP-1 migration; n.s./ns = not statistically significant
Protocol: (§1) To determine whether an agent inhibits a chemokine-induced activity, such as macrophage recruitment, varying amounts of the agent are mixed with cells in the presence of a known chemoattractant. For example, a range of known concentrations of an agent, e.g., a chemokine peptide, is incubated with a defined number (e.g., 10^4 - […]) of human THP-1 monocyte cells in individual wells of the top compartment of a trans-well plate. Chemokine (such as MCP-1, MIP1α, IL8 or SDF-1α), at a concentration known to cause significant migration of THP-1 cells in the trans-well migration assay, is placed in the lower compartment (Figure 1). Cells are then incubated at 37°C for a period sufficient to allow migration, e.g., 4 hours. After incubation, the cells are gently removed from the top of the filter with a pipette, 20 µl of 20 mM EDTA in simple PBS is added into each top well, and incubated for 20 minutes at 4°C. The filter is carefully flushed with media using a gentle flow, and removed. A standard curve consisting of a two-fold dilution series of THP-1 cells (in 29 µl) is prepared to accurately quantify the number of cells that have migrated. Migrated cells are stained with 3 µl of MTT stock dye solution which is added directly into each well (5 mg/ml in RPMI-1640 without phenol red, Sigma Chemical Co.) and incubated at 37°C for 4 hours. The media is carefully aspirated from each well, and the converted dye is solubilized by 20 µl of DMSO. Absorbance of converted dye is measured at a wavelength of 595 nm using an ELISA plate reader. The number of migrated cells in each well is then determined by interpolation of the standard curve (see also Imai et al.,J. Biol. Chem., 272, 15036 (1997)).
(§2) For this assay, THP-1 cells were maintained at a density of 4 × 10^5 cells per ml in RPMI-1640 supplemented with 10% fetal calf serum + 20 µM 2-mercaptoethanol. Chemotaxis was induced in a 96-well disposable chemotaxis chamber fitted with a 5 µM polycarbonate filter (PVP free, ChemoTX, Neuroprobe Inc., Cabin John). Twenty-nine µl of chemoattractant (recombinant human chemokine; 50 ng/ml, i.e., 5.9 nM) or control (100 ng/ml TGFβ) was added to the lower compartment of each well. The framed filter was aligned with the holes in the corner of the filter frame and placed over the wells.
(§3) Five × 10^4 THP-1 cells in 25 µl of RPMI-1640 were added to the upper compartment. Peptides were dissolved in Milli Q water and then serially diluted in culture medium. In most cases, the serially diluted peptides were added to the upper compartment of the chemotaxis chamber. The chamber was incubated at 37°C in a humidified atmosphere of 5% CO2 for 4 hours.
(§4) After incubation, the cells were gently removed from the top of the filter with a pipette, 20 µl of 20 mM EDTA in PBS was added into each top well, and the mixture was incubated for 20 minutes at 4°C. The filter was then carefully flushed with media using a gentle flow, and removed. A standard curve was prepared to accurately quantify the number of THP-1 cells that had migrated. The curve was based on a two-fold dilution series of THP-1 cells (top standard 100,000 cells in 29 µl). Cells which had migrated, and in separate wells, the cells in the standards, were stained with 3 µl of MTT stock solution which was added directly into each well (5 mg/ml in RPMI 1640 without phenol red, Sigma Chemical Co.) and incubated at 37°C for 4 hours. The media was carefully aspirated from each well, and the converted dye was solubilized by 20 µl of DMSO. Absorbance of converted dye was measured at a wavelength of 595 nm using an ELISA plate reader. The number of cells that had migrated in each well was determined by interpolation of the standard curve.
(§5) To investigate the receptor specificity of peptide 3 inhibition, the ED50 was determined for peptide 3(1-12)[MCP-1] (SEQ ID NO:1) inhibition of THP-1 migration induced by chemokines which signal through different receptors than MCP-1 receptors. […]

[2] = test system: MCP-1 induced THP-1 migration; test: THP-1 trans-well migration assay, MCP-1 as chemoattractant; format: cell-based, human
Protocol: as §1
Any method suitable for counting cells can be used, for example, counting with a hemocytometer, incubation of the cells with MTT (see above), or FACS analysis. A negative control assay is also performed, using TGF-β or another non-chemokine chemoattractant (e.g., IL1β or TNFα). To assess whether the agent is cytotoxic, the same concentrations of agent are incubated with THP-1 cells. Agents which 1) are not cytotoxic at levels which inhibit migration, 2) are ineffective at inhibiting the negative control-induced migration, and 3) reduce or inhibit chemokine-induced THP-1 migration, are agents which fall within the scope of the invention.
as §2, with “Twenty-nine µl of chemoattractant (recombinant human chemokine; 50 ng/ml, i.e., 5.9 nM) or control (100 ng/ml TGFβ) was added to the lower compartment of each well.” left out
as §3
as §4, with “Absorbance of converted dye was measured at a wavelength of 595 nm using an ELISA plate reader. The number of cells that had migrated in each well was determined by interpolation of the standard curve.” left out

HIV = format: cell-based; details: ns = not significant
[3] = test system: SDF-1α induced THP-1 migration; test: THP-1 trans-well migration assay, SDF-1α as chemoattractant; format: cell-based, human; details: inhibition of THP-1 migration; n.s./ns = not statistically significant
Protocol: as §1, §2, §3, §4, §5

gp120 = details: ns = not significant; >100 = ED50 not determined
Protocol: Binding assays. Cells (either Jurkat T-cells or THP-1 cells) were grown in RPMI 1640 medium supplemented with 10% fetal calf serum, 2 mM glutamine, 20 µM β-mercaptoethanol, 100 U/ml penicillin and 100 µg/ml streptomycin and maintained between 2 × 10^5 and 1 × 10^6 cells/ml. Prior to performing a binding assay, cells were spun out (100 × g; 4 minutes) and washed 3 times in ice-cold PBS. A volume of cell suspension in PBS containing 10^6 cells (for Jurkat cells) or 4 × 10^5 cells (for THP-1 cells) was pipetted into each well of a V-bottom 96-well plate (Gibco BRL) and spun out (100 x g; 4 minutes). Triplicate wells were then resuspended in 100 µl binding medium (PBS pH 7.2 containing 0.1% fatty acid-free bovine serum albumin (BSA)) containing labeled peptide in the presence or absence of various concentrations of unlabeled peptide. The plate was then incubated on ice for 90 minutes. Cells were washed 3 times with 380 µl of ice-cold PBS, spinning out the cells each time (100 × g; 4 minutes), and resuspended in 100 µl binding medium containing streptavidin-peroxidase (Amersham International) at 1:1000 dilution. Cells were incubated for a further 15 minutes on ice to allow labeling of any bound biotinylated peptide, then washed 4 times as above. Cells were then incubated with 200 µl TMB substrate (K-Blue, Bionostics) for 20 minutes at room temperature, and the reaction stopped by addition of 50 µl 2 M HCl. The plate was spun (3,000 × g; 3 minutes) and 200 µl of the colored product was transferred to an empty 96-well ELISA plate and the absorbance at 450 nm determined. For each assay, the absorbance of a blank reaction (no peptide added) was subtracted from all readings before further analysis.
Binding experiments with labeled peptide 2 were performed with 10 nM labeled peptide in each reaction.

[4] = Pharmacokinetics of radiolabeled D-ala peptide after IV or SQ bolus; format: in vivo, mice
Protocol: When ^3H-D-ala peptide 3(1-12)[MCP-1] (^3H-D-ala was attached to Asp) was given as an intravenous (IV) or subcutaneous (SQ) bolus to mice, peak serum concentrations were reached within 1 hour. This radiolabeled peptide was rapidly excreted (approximately 4 hours), primarily via the kidney. […] Direct comparison of ^3H-D-ala peptide 3(1-12)[MCP-1] (no DARC binding and rapidly cleared) and CRD-L-Leu4Ile11Cys13peptide 3(3-12)[MCP-1]

[5] = test system: recombinant human chemokine receptors; test: Binding of biotin-labeled peptide to parental and chemokine receptor expressing HOS and CHO lines (125I-streptavidin); details: labeled peptide at 10 µM
Text: HOS parental cells and CCR1-5 and CXCR4 transformants were obtained from the AIDS Reagent Program and were maintained as described on the supplier data sheet. Selection for the chemokine receptor-expressing plasmid was maintained throughout culture. CHO parental cells and CXCR1 and CXCR2 transformants were obtained form Dr. J. Navarro (Southwestern University, TX, USA) and maintained as described by the supplier under constant selection for expression of the chemokine receptor. All cells were split at about a 1:10 dilution approximately every 4 days, releasing the cells with EDTA solution and reseeding at known density. […]
The binding of labeled peptide 2 and labeled peptide 3 to the parental HOS, parental CHO and 8 chemokine receptor expressing lines was compared. […] The amount of streptavidin molecules added was calculated in each case to be approximately 50-fold in excess over the number of chemokine receptor sites. […]
To determine whether this apparent binding of peptide 2 was cell dependent, or whether it was binding to the plastic (or the some component of the fetal calf serum used during the cell culture), the following experiment was conducted. Three plates were evaluated: One had HOS parental cells, another had CCR5 over-expressors and the third had no cells but was incubated with the FCS-containing culture medium. […]

CC[C@@H](C)[C@@H](NC(=O)[C@H](NC(=O)[C@@H](CO)NC(=O)[C@@H](CO)NC(=O)[C@@H](CCCCN)NC(=O)[C@@H](CO)NC(=O)[C@H]1CCCN1C(=O)[C@@H](CCCCN)NC(=O)[C@@H](CCC(=O)O)NC(=O)[C@@H](C)NC(=O)[C@H](NC(=O)[C@H](N)CS)C(C)C)[C@H](C)O)C(=O)N[C@H](CCCNC(=N)N)C(=O)N[C@H](CCCNC(=N)N)C(=O)N[C@H](Cc1ccc(O)cc1)C(=O)N[C@H](CO)C(=O)N[C@H](CS)C(=O)O [cvaekpsksstirrysc] (H-[dC][dV][dA][dE][dK][dP][dS][dK][dS][dS][dT][dI][dR][dR][dY][dS][dC]-OH; N-terminus and C-terminus assumed)
ED50 (µM) versus MIP1α [1]: ns | ED50 (µM) versus MCP-1 ([2]; inhibition of THP-1 migration, n.s./ns = not statistically significant): ns | % virus inhibition (HIV): ns | ED50 (µM) versus SDF-1α [3]: ns | gp120 ED-50 (µM) (gp120): ns

^3H-D-ala peptide 3(1-12)[MCP-1]: ^3H-D-ala was attached to Asp (EICAD(3H‑D‑Ala)PKQKWVQ; not fully specified)
time of excretion, primarily via the kidney [4]: approximately 4 hours | time to peak serum concentrations [4]: ≤ 1 h

labeled peptide: N-terminal biotin conjugate of the sequence n'-CLDPKQKWIQC-c' (Biotin-CLDPKQKWIQC; cysteine pairing not given here)
binding to parental and chemokine receptor expressing cell lines (in words) [5]: No detectable binding | ED50 for inhibition of MCP-1 induced migration ([2]; MCP-1 at 100 ng/ml in RPMI 1640 + 10% FCS, 4 hours, 5 µm filter): about 4 µM

Reference: patent EP2386565A2, “Compounds and methods to inhibit or augment an inflammatory response” (Cambridge Enterprise Ltd., priority 1999, dated 2000)
